“Also recorded” adds a separate entry of the source.
Experiments:
[1] = system: Proteus vulgaris (MB-838); assay: disc-plate assay using Proteus vulgaris; type: cell-based; details: read-out: concentration giving a 25 mm. zone
[2] = system: gram-negative and gram-positive organisms; assay: in vivo activity against infections (in words); design: species or system mice; details: for oral protection against infections: given orally; for in vivo gram-negative potency compared with cephalothin: in general
Procedure: (§1) Methods: The method employed in this characterization is as follows: Female white Swiss mice, average weight 20-23 grams, were infected intraperitoneally with 3-20 times the number of organisms calculated to be lethal for 50% of the infected control animals (3-20 LD50 doses). At the time of infection and again 6 hours later, therapy was given by the designated route. Controls of the virulence of the culture and the toxicity of the antibiotic for uninfected mice were included in the tests. Seven days after infection the test was considered complete and the amount of the antibiotic (I) that would be required to protect 50% of the infected and treated animals was calculated by the method of Knudsen and Curtis: J. Amer. Stat. Assoc. Vol. 42: page 282 (1947).
The method employed in these studies is the same as described above with regard to the in vivo characterization of 810A.

cephalosporinases = assay: resistance to cephalosporinases / enzymatic degradation; type: biochemical
Salmonella = assay: activity against Salmonella (in words); type: cell-based
Paracolobactrum arizonae = assay: in vivo protection of infected mice; details: subcutaneous route × two doses
Procedure: as §1
(§2) The method employed in these studies is the same as described above with regard to the in vivo characterization of 810A. The results of these tests are described below in Table XIb:
(§3) Administration was by subcutaneous injection. At the completion of the test period, usually 7 days after administration, the amount of product required to protect 50% of the mice (ED50) from this otherwise fatal injection was calculated: […]

Escherichia coli = assay: in vivo protection of infected mice; details: subcutaneous route × two doses
Procedure: as §1, §2, §3

Proteus vulgaris = assay: in vivo protection of infected mice; details: subcutaneous route × two doses
Procedure: as §1, §2, §3

[3] = system: Diplococcus pneumoniae 2400; assay: in vivo protection of infected mice; details: subcutaneous route × two doses
Procedure: as §1, §2, §3

Proteus morganii 3202 = assay: in vivo protection of infected mice; details: subcutaneous route × two doses
Procedure: as §1, §2, §3

Klebsiella pneumoniae B = assay: in vivo protection of infected mice; details: subcutaneous route × two doses
Procedure: as §1, §2, §3

[4] = system: Salmonella schottmuelleri; assay: in vivo protection of infected mice; details: subcutaneous route × two doses
Procedure: as §1, §2, §3

Aerobacter aerogenes = assay: in vivo protection of infected mice; details: subcutaneous route × two doses
Procedure: as §1, §2, §3

Pasteurella multocida = assay: in vivo protection of infected mice; details: subcutaneous route × two doses
Procedure: as §1, §2, §3

Proteus mirabilis = assay: in vivo protection of infected mice; details: subcutaneous route × two doses
Procedure: as §1, §2, §3

Klebsiella pneumoniae AD = assay: in vivo protection of infected mice; details: subcutaneous route × two doses
Procedure: as §1, §2, §3

Salmonella typhosa = assay: in vivo protection of infected mice; details: subcutaneous route × two doses
Procedure: as §1, §2, §3

[5] = system: gram-negative and gram-positive bacteria; assay: antibacterial activity (in words); type: cell-based
[6] = system: Vibrio percolans (MB-1272); assay: disc-plate assay using Vibrio percolans; details: Example 9 broth after 4 days; 0.5 inch discs
[7] = system: Alcaligenes faecalis (MB-9); assay: bacterial inactivation by washed cells
[8] = blood appearance and urinary excretion; type: in vivo; details: within four hours after administration; 240 min
[9] = system: Alcaligenes faecalis (MB-9); details: 4 h
Escherichia coli 236 = assay: bacterial inactivation; details: bacterial cells, 4 h
Procedure: (§4) These cultures are: Escherichia coli 236, Proteus morganii 251, Proteus morganii 356 and Proteus mirabilis 241. […] In conducting the assay, individual mixtures of the organisms and one of the antibiotics were sampled after 4 hours incubation and assayed for residual antibiotic activity. The procedure is the same assay method as described above against Alcaligenes faecalis MB-9 and A. viscosus MB-12.

Proteus morganii 356 [10] = assay: bacterial inactivation; details: bacterial cells, 4 h
Procedure: as §4

Proteus mirabilis 241 = assay: bacterial inactivation; details: bacterial cells, 4 h
Procedure: as §4

Proteus morganii 251 = assay: bacterial inactivation; details: bacterial cells, 4 h
Procedure: as §4

Proteus morganii 356 [11] = assay: mouse protection test, clinical isolate; type: in vivo, mice; details: subcutaneous route × 2 doses (average of two trials)
Procedure: as §1
Administration was by subcutaneous injection. At the completion of the test period, usually 7 days after administration, the amount of product required to protect 50% of the mice (ED50) from this otherwise fatal injection was calculated:
In addition to the aforementioned in vivo trials of the product, a clinical isolate of Proteus morganii 356 which is resistant to cephalosporins and capable of degrading cephalosporin C, was employed in a mouse protection test performed in the same manner as reported above.

[12] = isoelectric point and pH stability; type: physicochemical
[13] = system: Alcaligenes viscosus (MB-12); details: 4 h

## COC(=Cc1ccc(OS(=O)(=O)O)cc1)C(=O)OCC1=C(C(=O)O)N2C(=O)[C@](NC(=O)CCC[C@@H](N)C(=O)O)(OC)[C@H]2SC1 [Ic, 7β-(D-5-amino-5-carboxyvaleramido)-3-(α-methoxy-p-sulfooxycinnamoyloxymethyl)-7-methoxy-3-cephem-4-carboxylic acid]
[1]
  IC (25 mm zone): 88 µg/mL
[2]; administered intraperitoneally
  effectiveness against infections: effective against a variety of gram-negative and gram-positive infections
[2]
  oral protection against infections: protects against infections due to Proteus vulgaris
cephalosporinases
  resistance to enzymatic degradation compared with cephalosporin C: more resistant to enzymatic degradation than cephalosporin C

## CO[C@@]1(NC(=O)CCC[C@@H](N)C(=O)O)C(=O)N2C(C(=O)O)=C(COC(N)=O)CS[C@@H]21 [Antibiotic 842A]
Salmonella
  activity against Salmonella species: exhibits activity against Salmonella schottmuelleri 3010, S. gallinarum and S. typhosa
Paracolobactrum arizonae
  ED50: 125 µg
Escherichia coli
  ED50: 200 µg
Proteus vulgaris
  ED50: 51 µg
[3]
  ED50: 566 µg
Proteus morganii 3202
  ED50: 276 µg
Klebsiella pneumoniae B
  ED50: 125 µg
[4]
  ED50: 103 µg
Aerobacter aerogenes
  ED50: 49 µg
Pasteurella multocida
  ED50: 57 µg
Proteus mirabilis
  ED50: 276 µg
Klebsiella pneumoniae AD
  ED50: 125 µg
Salmonella typhosa
  ED50: 34 µg
[5]
  antibacterial effect (in words): enhanced activity against gram-negative microorganisms
  bactericidal action: bactericidal
  development of resistance: resistance to it develops slowly
[5]; in vitro
  growth inhibition of gram-negative bacteria: inhibits the growth of the following gram-negative bacteria: Escherichia coli, Proteus vulgaris, Alcaligenes faecalis, Brucella bronchiseptica, Salmonella gallinarum, Vibrio percolans and Xanthomonas vesicatoria
  growth inhibition of gram-positive bacteria: inhibits the growth of the following gram-positive bacteria: Staphylococcus aureus, Sarcina lutea and Bacillus subtilis
[6]
  inhibition zone: 33 mm.
[7]; A. faecalis, A. viscosus, E. coli 236, P. morganii 251 and 236 (so in the source), P. mirabilis 241
  resistance to inactivation compared with cephalosporin C: more resistant than cephalosporin C
[7]; compared with cephalosporin C, cephaloridine and cephalothin, certain microorganisms
  stability to bacterial inactivation: more stable than the latter against certain microorganisms
[8]
  eliminated in the urine: approximately 80%
[9]
  Percent Inactivation After Incubation With Washed Bacterial Cells: 0%
Escherichia coli 236
  percent inactivation: 38%
Proteus morganii 356 [10]
  percent inactivation: 69%
Proteus mirabilis 241
  percent inactivation: 5%
Proteus morganii 251
  percent inactivation: 80%
[2]
  oral protection against infections: protects against infections due to Paracolobactrum arizonae 3270, Proteus vulgaris 1810, and Salmonella schottmuelleri 3010
  in vivo gram-negative potency compared with cephalothin: greater than cephalothin
[2]; listed as 842A
  in vivo gram-negative potency compared with cephalothin: generally increased gram-negative effect and an increased potency when compared to cephalothin
[2]; mouse, in vivo
  in vivo activity / protection against infections: effectiveness in vivo on Proteus morganii and an effectiveness against the following gram-negative bacteria: Escherichia coli, Proteus vulgaris, Proteus mirabilis, Proteus morganii, Salmonella schottmuelleri, Klebsiella pneumoniae AD, Klebsiella pneumoniae B, and Paracolobactrum arizonae; also recorded: protects against infection with three species of Proteus, two of Salmonella, one strain of Escherichia coli, two of Klebsiella and also against Paracolobactrum arizonae, Aerobacter aerogenes, Pasteurella multocida and Diplococcus pneumoniae 2400
[2]; subcutaneously to mice
  protection from gram-negative infection compared with known antibiotics: generally more active than cephalothin; also recorded: approximately equal to cephaloridine, ampicillin and chloromycetin
cephalosporinases
  resistance to cephalosporinases: a greater resistance to cephalosporinases
  resistance to enzymatic degradation compared with cephalosporin C: more resistant to enzymatic degradation than cephalosporin C
Proteus morganii 356 [11]
  ED50: 273 µg
[12]; above pH 7
  stability: unstable
[12]; above pH 9.0
  stability: unstable
[12]; pH 1.5
  stability: relatively stable
[12]; pH 1.5, listed as 842A
  stability: stable
[13]
  Percent Inactivation After Incubation With Washed Bacterial Cells: 54.4%

— patent publication US4036696A, “Preparation of antibiotics by fermentation” (priority 1976, dated 1977)
